Type in all cases: biochemical
The target of test [1] is T1, CDK4/Cyclin D1 (Homo sapiens (Human), UniProt P11802). The test is described as follows: CDK4/Cyclin D1 Mobility Shift Assay (MSA). Conditions: read-out: CDK4/CyclinD1 MSA IC50. From the text:
CDK4/Cyclin D1 Mobility Shift Assay (MSA) The purpose CDK4/Cyclin D1 assay is to evaluate the inhibition (% inhibition and IC50 values) in the presence of small molecule inhibitors by using a fluorescence based microfluidic mobility shift assay. CDK4/Cyclin D1 catalyzes the production of ADP from ATP that accompanies the phosphoryl transfer to the substrate peptide 5-FAM-Dyrktide (5-FAM-[…]) (Perkin Elmer Peptide 34). The mobility shift assay (MSA) electrophoretically separates the fluorescently labelled peptides (substrate and phosphorylated product) following the kinase reaction. Both substrate and product are measured, and the ratio of these values is used to generate % conversion of substrate to product by the LabChip EZ Reader. Typical reaction solutions contained 2% DMSO (+/−inhibitor), 10 mM MgCl2, 1 mM EGTA, 0.05% BSA, 2 mM DTT, 0.2 mM ATP, 0.01% Brig-35, 1.5 uM 5-FAM-Dyrktide, 2.5 nM CDK4/Cyclin D1 in 50 mM HEPES buffer at pH 7.5. The reaction was initiated with the addition of substrate solution, following a 30-minute pre-incubation of enzyme and inhibitor at 22° C. in the reaction mix. The reaction was stopped after 180 minutes by the addition of 75 μL of 500 mM EDTA and measured on a Perkin Elmer EZ reader instrument. IC50 determinations were made from a plot of the fractional velocity as a function of inhibitor concentration fit to the 4 parameters IC50 equation.

For test [2], the target named is CDK6/Cyclin D3 (Homo sapiens (Human), UniProt Q00534). The experiment in a line: CDK6/Cyclin D3 ADP-Glo Kinase Assay. The settings on record: read-out: CDK6/CyclinD3 IC50. The gist of the method: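 Commercial CDK6/Cyclin D3 pre-incubated with inhibitor 30 min at room temperature, then reaction started with ATP/substrate and run 90 min at room temperature. ADP formed measured by ADP-Glo luminescence; IC50 from fractional velocity vs inhibitor concentration fit to a 4-parameter equation.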
CDK6/Cyclin D3, sequence (Q00534 whole entry): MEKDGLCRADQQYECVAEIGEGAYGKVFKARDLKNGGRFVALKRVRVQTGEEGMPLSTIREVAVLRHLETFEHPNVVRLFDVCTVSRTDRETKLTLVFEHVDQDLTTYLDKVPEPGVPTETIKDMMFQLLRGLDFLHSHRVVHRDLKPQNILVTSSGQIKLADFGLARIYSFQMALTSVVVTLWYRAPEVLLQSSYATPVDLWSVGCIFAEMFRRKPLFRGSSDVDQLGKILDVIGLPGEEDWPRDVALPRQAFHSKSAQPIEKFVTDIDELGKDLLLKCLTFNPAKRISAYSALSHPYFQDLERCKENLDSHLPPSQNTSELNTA
CDK6/Cyclin D3, sequence (P30281 whole entry partner): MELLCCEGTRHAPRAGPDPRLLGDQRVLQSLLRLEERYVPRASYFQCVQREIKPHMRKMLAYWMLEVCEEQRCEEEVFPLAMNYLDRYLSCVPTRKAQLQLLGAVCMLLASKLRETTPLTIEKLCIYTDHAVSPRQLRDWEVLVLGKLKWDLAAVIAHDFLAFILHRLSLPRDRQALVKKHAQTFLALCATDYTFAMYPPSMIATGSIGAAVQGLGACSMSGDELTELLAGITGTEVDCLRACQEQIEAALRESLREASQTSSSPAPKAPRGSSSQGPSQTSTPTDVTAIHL

The target in test [3] is CDK1/Cyclin B1 (Homo sapiens (Human), UniProt P06493). The experiment in a line: CDK1/Cyclin B1 ADP-Glo Kinase Assay. In outline:
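Purchased CDK1/Cyclin B1 was pre-incubated 30 min with inhibitor at room temperature, then reacted 90 min at room temperature after adding ATP-containing substrate. ADP formed was read by two-step ADP-Glo luminescence. IC50 came from a 4-parameter fit of fractional velocity versus inhibitor concentration.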
On the technique in general: ADP-Glo first removes unused ATP, then detects ADP through luciferase.

The target of test [4] is CDK2/Cyclin E1 full length (Homo sapiens (Human), UniProt P24941). The experiment in a line: CDK2/Cyclin E1 Full length ADP-Glo Kinase Assay. Conditions: read-out: CDK2/CyclinE1 IC50. The procedure: CDK2/Cyclin E1 Full length ADP-Glo Kinase Assay
The purpose of CDK2/Cyclin El assay is to evaluate the inhibition (% inhibition and IC50 values) of small molecule inhibitors by using a Luminescent based ADP-Glo assay. CDK2/Cyclin El full length catalyzes the production of ADP from ATP. ADP-Glo assay monitors ADP producing biochemical reactions. ADP-Glo is performed in 2 steps upon completion of kinase reaction: a combined termination of kinase reaction and depletion of remaining ATP in the first step, and conversion of generated ADP to ATP and the newly produced ATP to light output using luciferase/luciferin reaction in the second step. The luminescent signal generated is proportional to the ADP concentration produced and is correlated with the kinase activity. CDK2/Cyclin E1 was purchased from Eurofins (Cat 14-475M). […] The assay was initiated with the addition of ATP-containing substrate solution, following a 30-minute pre-incubation of enzyme and inhibitor at room temperature in the reaction mixture. The reaction was stopped after 90 minutes at room temperature by the addition of 10 μL of ADP-GLO Reagent. After a 90 minute incubation, 20 uL of Kinase Detection Reagent was added. Samples were incubated for 40 minutes, after which plate well luminescence was measured on a Envision microplate reader. The IC50 determinations were made from a plot of the fractional velocity as a function of inhibitor concentration fit to the 4 parameters IC50 equation.

The target of test [5] is T1, CDK4/Cyclin D1. The experiment in a line: CDK4/Cyclin D1 CHEF Assay. Conditions: AQT; read-out: CDK4/CyclinD1 AQT IC50. The gist of the method: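 Peptide substrate AQT0258 carries a Sox fluorophore whose Mg(II)-dependent fluorescence (ex 360/em 485 nm) rises on phosphorylation. Enzyme and inhibitor pre-incubated 30 min at 22 °C, substrate added, reaction run 3 h at 22 °C. IC50 from 4-parameter fit of fractional velocity vs inhibitor concentration.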

T1 sequence (P11802 whole entry, species assumed): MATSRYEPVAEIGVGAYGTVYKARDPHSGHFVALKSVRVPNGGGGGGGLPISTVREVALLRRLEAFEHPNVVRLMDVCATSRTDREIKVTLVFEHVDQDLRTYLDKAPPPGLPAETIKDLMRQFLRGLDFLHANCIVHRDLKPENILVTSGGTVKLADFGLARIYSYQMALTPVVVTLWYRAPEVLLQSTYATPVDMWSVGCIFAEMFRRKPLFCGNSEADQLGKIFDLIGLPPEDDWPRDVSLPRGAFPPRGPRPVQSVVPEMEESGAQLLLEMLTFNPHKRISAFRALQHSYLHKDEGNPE
T1 sequence (P24385 whole entry partner, species assumed): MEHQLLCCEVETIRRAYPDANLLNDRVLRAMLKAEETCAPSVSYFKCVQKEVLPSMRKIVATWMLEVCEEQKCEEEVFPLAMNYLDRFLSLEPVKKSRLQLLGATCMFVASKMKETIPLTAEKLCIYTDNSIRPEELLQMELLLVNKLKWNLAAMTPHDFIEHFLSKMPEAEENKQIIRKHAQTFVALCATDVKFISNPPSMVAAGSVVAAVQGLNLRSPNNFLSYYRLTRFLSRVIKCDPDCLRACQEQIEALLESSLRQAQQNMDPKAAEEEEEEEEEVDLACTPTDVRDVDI
CDK1/Cyclin B1, sequence (P06493 whole entry): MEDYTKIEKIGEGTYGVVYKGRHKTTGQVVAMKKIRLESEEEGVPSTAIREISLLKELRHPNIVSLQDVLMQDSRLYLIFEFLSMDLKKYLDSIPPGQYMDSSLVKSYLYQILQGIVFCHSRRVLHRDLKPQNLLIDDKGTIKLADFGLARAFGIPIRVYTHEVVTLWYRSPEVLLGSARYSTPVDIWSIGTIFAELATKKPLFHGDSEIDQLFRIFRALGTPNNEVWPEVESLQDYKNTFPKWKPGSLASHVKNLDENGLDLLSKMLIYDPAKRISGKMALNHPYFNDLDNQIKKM
CDK1/Cyclin B1, sequence (P14635 whole entry partner): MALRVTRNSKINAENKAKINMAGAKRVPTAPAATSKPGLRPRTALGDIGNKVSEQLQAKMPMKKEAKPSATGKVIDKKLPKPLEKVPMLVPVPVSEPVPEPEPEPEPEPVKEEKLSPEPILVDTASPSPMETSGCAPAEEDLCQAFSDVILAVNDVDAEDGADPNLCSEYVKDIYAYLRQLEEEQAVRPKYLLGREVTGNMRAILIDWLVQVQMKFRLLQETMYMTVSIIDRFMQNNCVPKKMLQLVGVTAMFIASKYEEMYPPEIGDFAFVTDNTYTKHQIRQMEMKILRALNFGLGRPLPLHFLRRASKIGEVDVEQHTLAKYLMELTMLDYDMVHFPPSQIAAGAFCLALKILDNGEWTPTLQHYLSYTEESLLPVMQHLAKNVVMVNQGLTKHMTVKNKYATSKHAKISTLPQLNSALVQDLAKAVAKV

As for `CS(=O)(=O)N1CCC(Nc2ncc3ccnc(N4CCN(C5CC5)CC4)c3n2)CC1` [Compound 1, 8-(4-cyclopropylpiperazin-1-yl)-N-(1-(methylsulfonyl)piperidin-4-yl)pyrido[3,4-d]pyrimidin-2-amine], the IC50 is less than 200 nM in test [1] and 200 to 500 nM in test [2].
Turning to `CS(=O)(=O)N1CCC(Nc2ncc3ccnc(N4CCC5(C4)CC5(F)F)c3n2)CC1` (stereo not drawn) [Compound 3, 8-(1,1-difluoro-5-azaspiro[2.4]heptan-5-yl)-N-(1-(methylsulfonyl)piperidin-4-yl)pyrido[3,4-d]pyrimidin-2-amine], the IC50 in test [3], in test [1] and in test [2] was less than 200 nM throughout.
Take `CS(=O)(=O)N1CCC(Nc2ncc3ccnc(N4CC5(C4)CN(C4CC4)C5)c3n2)CC1` [Compound 8, 8-(6-cyclopropyl-2,6-diazaspiro[3.3]heptan-2-yl)-N-(1-(methylsulfonyl)piperidin-4-yl)pyrido[3,4-d]pyrimidin-2-amine]: the IC50 in test [3] was 200 to 500 nM; in test [1] it was less than 200 nM.
For `CN1CCN(c2ccc(Nc3ncc4ccnc(N5CCC6(CCN(S(C)(=O)=O)C6)C5)c4n3)cc2)CC1` (stereo not drawn) [Compound 9, N-(4-(4-methylpiperazin-1-yl)phenyl)-8-(7-(methylsulfonyl)-2,7-diazaspiro[4.4]nonan-2-yl) pyrido[3,4-d]pyrimidin-2-amine] the same measures were 200 to 500 nM and less than 200 nM.
Turning to `CN1CCC(n2cc(Nc3ncc4ccnc(N5CCC6(C5)CC6(F)F)c4n3)cn2)CC1` (stereo not drawn) [Compound 20, 8-(1,1-difluoro-5-azaspiro[2.4]heptan-5-yl)-N-(1-(1-methylpiperidin-4-yl)-1H-pyrazol-4-yl)pyrido[3,4-d]pyrimidin-2-amine], the IC50 in test [1] and in test [2] was less than 200 nM each time.
As to `Cc1cc2cnc(Nc3cnn(C4CC5(C4)CN(C)C5)c3)nc2c(N2CC3(C2)CN(S(C)(=O)=O)C3)n1` [Compound 26, 6-methyl-N-(1-(2-methyl-2-azaspiro[3.3]heptan-6-yl)-1H-pyrazol-4-yl)-8-(6-(methylsulfonyl)-2,6-diazaspiro[3.3]heptan-2-yl) pyrido[3,4-d]pyrimidin-2-amine], the results for the IC50 in test [3], in test [4] and in test [5] were greater than 2000 nM, 200 to 500 nM and 200 to 500 nM, respectively.
For the compound `Cc1cc2cnc(Nc3ccc4c(c3)CN(C3CN(S(C)(=O)=O)C3)C4)nc2c(N2CC3(CN(C)C3)C2)n1` [Compound 29, 6-methyl-8-(6-methyl-2,6-diazaspiro[3.3]heptan-2-yl)-N-(2-(1-(methylsulfonyl)azetidin-3-yl)isoindolin-5-yl)pyrido[3,4-d]pyrimidin-2-amine], the IC50 in test [3] was greater than 2000 nM; in test [4], 200 to 500 nM; in test [5], less than 200 nM.
In the case of `Cc1cc2cnc(Nc3ccc(N4CC5(CN(C)C5)C4)cc3)nc2c(N2CC3(C2)CS(=O)(=O)C3)n1` [Compound 30, 6-(6-methyl-2-((4-(6-methyl-2,6-diazaspiro[3.3]heptan-2-yl)phenyl)amino)pyrido[3,4-d]pyrimidin-8-yl)-2-thia-6-azaspiro[3.3]heptane 2,2-dioxide], the IC50 is greater than 2000 nM in test [3], 200 to 500 nM in test [4], 200 to 500 nM in test [5] and 200 to 500 nM in test [2].
Consider `Cc1cc2cnc(Nc3cnn(C4CC5(C4)CN(C)C5)c3)nc2c(N2CCC3(C2)CC3(F)F)n1` (stereo not drawn) [Compound 33, 8-(1,1-difluoro-5-azaspiro[2.4]heptan-5-yl)-6-methyl-N-(1-(2-methyl-2-azaspiro[3.3]heptan-6-yl)-1H-pyrazol-4-yl)pyrido[3,4-d]pyrimidin-2-amine], for which the results for the IC50 in test [4], in test [5] and in test [2] were 200 to 500 nM, less than 200 nM and less than 200 nM, respectively.
For `Cc1cc2cnc(Nc3ccc(N4CC5(CN(C)C5)C4)cc3)nc2c(N2CCC3(CCOCC3)C2)n1` [Compound 35, 6-methyl-N-(4-(6-methyl-2,6-diazaspiro[3.3]heptan-2-yl)phenyl)-8-(8-oxa-2-azaspiro[4.5]decan-2-yl)pyrido[3,4-d]pyrimidin-2-amine], the IC50 was greater than 2000 nM in test [3], 200 to 500 nM in test [4], less than 200 nM in test [5] and less than 200 nM in test [2].
Take `Cc1cc2cnc(Nc3cc4c(cc3F)CN(S(C)(=O)=O)C4)nc2c(N2CC3(CNC3)C2)n1` [Compound 37, N-(6-fluoro-2-(methylsulfonyl)isoindolin-5-yl)-6-methyl-8-(2,6-diazaspiro[3.3]heptan-2-yl) pyrido[3,4-d]pyrimidin-2-amine]: the IC50 in test [3] is greater than 2000 nM; in test [4], 200 to 500 nM; in test [5] it was greater than 2000 nM; in test [2] it was greater than 2000 nM.
On to `Cc1cc2cnc(NC3CCN(S(C)(=O)=O)CC3)nc2c(N2CC3(C2)CN(C2CC2)C3)n1` [Compound 42, 8-(6-cyclopropyl-2,6-diazaspiro[3.3]heptan-2-yl)-6-methyl-N-(1-(methylsulfonyl)piperidin-4-yl)pyrido[3,4-d]pyrimidin-2-amine], for which the IC50 in test [3] is greater than 2000 nM; in test [4], less than 200 nM; in test [5], less than 200 nM; in test [2] it was 500 to 2000 nM.
With `O=S(=O)(C1CC1)N1CCC(Nc2ncc3cc(C(F)F)nc(N4CC5(CCNC5)C4)c3n2)CC1` [Compound 46, 1-(cyclopropanesulfonyl)-N-(8-{2,6-diazaspiro[3.4]octan-2-yl}-6-(difluoromethyl)pyrido[3,4-d]pyrimidin-2-yl)piperidin-4-amine], the IC50 in test [3], in test [4], in test [5] and in test [2] was less than 200 nM each time.
Regarding `Cc1cc2cnc(NC3CCN(S(=O)(=O)C4(C)CC4)CC3)nc2c(C2CC(C)(O)C2)n1` (stereo not drawn) [Compound 63, 1-methyl-3-(6-methyl-2-((1-((1-methylcyclopropyl)sulfonyl)piperidin-4-yl)amino)pyrido[3,4-d]pyrimidin-8-yl)cyclobutan-1-ol], the IC50 in test [3] is greater than 2000 nM; in test [4] it was 200 to 500 nM; in test [2], greater than 2000 nM.
Consider `Cc1cc2cnc(NC3CCN(S(=O)(=O)C4CC4)CC3)nc2c(N2CC(F)(F)C3(CN(C)C3)C2)n1` [Compound 102, N-(1-(cyclopropylsulfonyl)piperidin-4-yl)-8-(8,8-difluoro-2-methyl-2,6-diazaspiro[3.4]octan-6-yl)-6-methylpyrido[3,4-d]pyrimidin-2-amine], for which the IC50 in test [3], in test [5] and in test [2] was less than 200 nM throughout.
In the case of `Cc1cc2cnc(NC3CCN(S(C)(=O)=O)CC3)nc2c(N2CC3(CN(C)C[C@@H]3F)C2)n1` [Compound 103, (R)-8-(8-fluoro-6-methyl-2,6-diazaspiro[3.4]octan-2-yl)-6-methyl-N-(1-(methylsulfonyl)piperidin-4-yl)pyrido[3,4-d]pyrimidin-2-amine], the IC50 was 500 to 2000 nM in test [3], less than 200 nM in test [4], less than 200 nM in test [5] and less than 200 nM in test [2].
Regarding `Cc1cc2cnc(NC3CCN(S(C)(=O)=O)CC3)nc2c(N2CC3(CN(C)C[C@H]3F)C2)n1` [Compound 104, (S)-8-(8-fluoro-6-methyl-2,6-diazaspiro[3.4]octan-2-yl)-6-methyl-N-(1-(methylsulfonyl)piperidin-4-yl)pyrido[3,4-d]pyrimidin-2-amine], the IC50 in test [3] was 500 to 2000 nM; in test [4], less than 200 nM; in test [5] it was less than 200 nM; in test [2] it was 200 to 500 nM.

(Values after patent publication US20250235456A1, “METHODS OF USE FOR AZA-QUINAZOLINE COMPOUNDS” (Iambic Therapeutics, Inc., priority 2024, published 2025).)
